This assay concerns the target T1, human 5-HT1A serotonergic receptor (Homo sapiens, UniProt P08908).
T1 construct: expressed in transfected cells; host or cells: HeLa
T1 sequence (P08908 1-422): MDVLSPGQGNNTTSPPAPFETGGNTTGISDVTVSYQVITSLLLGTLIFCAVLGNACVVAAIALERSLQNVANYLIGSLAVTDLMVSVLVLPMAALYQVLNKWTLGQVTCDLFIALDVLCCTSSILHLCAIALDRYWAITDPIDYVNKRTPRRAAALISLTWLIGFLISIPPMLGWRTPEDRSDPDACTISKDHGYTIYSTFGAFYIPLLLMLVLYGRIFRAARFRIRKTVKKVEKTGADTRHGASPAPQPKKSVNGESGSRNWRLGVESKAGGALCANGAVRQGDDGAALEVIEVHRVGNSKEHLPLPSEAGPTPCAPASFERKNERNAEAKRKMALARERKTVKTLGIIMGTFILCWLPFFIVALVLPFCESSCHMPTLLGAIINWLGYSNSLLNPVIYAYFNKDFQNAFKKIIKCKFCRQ
In words: Radioreceptor binding, recombinant human 5-HT1A receptors ([3H]8-OH-DPAT, HeLa membranes). The conditions noted are these: recombinant human receptor, [3H]8-OH-DPAT; Ki from IC50 by Cheng & Prusoff; read-out: Binding affinity for the 5-HT1A receptor, Ki. The protocol:
Genomic clone G-21 coding for the human 5-HT1A serotonergic receptor is stably transfected in a human cell line (HeLa). HeLa cells were grown as monolayers in Dulbecco's modified Eagle's medium (DMEM), supplemented with 10% fetal calf serum and gentamicin ([…]), 5% CO2 at 37° C. Cells were detached from the growth flask at 95% confluence by a cell scraper and were lysed in ice-cold 5 mM Tris and 5 mM EDTA buffer (pH 7.4). Homogenates were centrifuged at 40000×g×20 min and pellets were resuspended in a small volume of ice-cold 5 mM Tris and 5 mM EDTA buffer (pH 7.4) and immediately frozen and stored at −70° C. until use. On the day of experiment, cell membranes were resuspended in binding buffer: 50 mM Tris HCl (pH 7.4), 2.5 mM MgCl2, 10 μM pargiline (Fargin et al., Nature 335, 358-360, 1988). Membranes were incubated in a final volume of 1 ml for 30 min at 30° C. with 0.2-1 nM [3H]8-OH-DPAT, in absence or presence of competing drugs; non-specific binding was determined in the presence of 10 μM 5-HT. The incubation was stopped by addition of ice-cold Tris-HCl buffer and rapid filtration through 0.2% polyethyleneimine pretreated Whatman GF/B or Schleicher & Schuell GF52 filters.
The inhibition of specific binding of the radioligands by the tested drugs was analyzed to estimate the IC50 value by using the non-linear curve-fitting program Allfit (De Lean et al., Am. J. Physiol. 235, E97-E102, 1978). The IC50 value was converted to an affinity constant (Ki) by the equation of Cheng & Prusoff (Cheng, Y. C.; Prusoff, W. H. Biochem. Pharmacol. 22, 3099-3108, 1973).

The term Ki denotes a measure of affinity in units of concentration, obtained from inhibition or displacement.

Consider `COc1ccccc1[N+]1([O-])CCN(CCN(C(=O)C2CCCCC2)c2ccccc2[N+](=O)[O-])CC1` [Example 30, 1-[N-(2-nitrophenyl)-N-cyclohexylcarbonyl-2-aminoethyl]-4-(2-methoxyphenyl)piperazine N^4-oxide], for which the Ki came out at 7.96 nM.

Turning to `COc1ccccc1N1CCN(CCN(C(=O)C2CCCCC2)c2ccccc2NC(C)=O)CC1` [Example 28, 1-[N-(2-acetylaminophenyl)-N-cyclohexylcarbonyl-2-aminoethyl]-4-(2-methoxyphenyl)piperazine], the Ki was found to be 18.8 nM.

Regarding `COc1ccccc1N1CCN(C(C)CN(C(=O)C2CCCCC2)c2ccccc2[N+](=O)[O-])CC1` (centres unmarked) [Example 45, 1-[N-(2-nitrophenyl)-N-cyclohexylcarbonyl-1-amino-2-propyl]-4-(2methoxyphenyl)piperazine], the Ki is 2.21 nM.

Turning to `COc1cc(NC(C)=O)ccc1N1CCN(CCN(C(=O)C2CCCCC2)c2ccccc2OCC(F)(F)F)CC1` [Example 67], the Ki was found to be 4.76 nM.

For the molecule `COc1ccccc1N1CCN(CC(C)Nc2ccccc2[N+](=O)[O-])CC1` (centres unmarked) [Example 52, 1-[N-(2-nitrophenyl)-2-aminopropyl]-4-(2-methoxyphenyl)piperazine], the Ki was 34 nM.

In the case of `COc1ccccc1N1CCN(CCN(C(=O)C2CCCCC2)c2ccccc2C(=O)NC(=O)C2CCCCC2)CC1` [Example 16, 1-[N-(2-cyclohexylcarbonylaminocarbonylphenyl)-N-cyclohexylcarbonyl-2-aminoethyl]-4-(2-methoxyphenyl)piperazine], the Ki is 2.9 nM.

Take `COc1ccccc1N1CCN(CCNc2ccccc2Oc2ccccc2)CC1` [Example 5, 1-[N-(2-phenoxyphenyl)-2-aminoethyl]-4-(2-methoxyphenyl)piperazine.3HCl]: the Ki came to 14.8 nM.

Turning to `N#Cc1ccccc1N(CCN1CCN(c2ccccc2OC(F)(F)F)CC1)C(=O)C1CCCCC1` [Example 77, 1-[N-(2-cyanophenyl)-N-cyclohexylcarbonyl-2-aminoethyl]-4-(2-trifluoromethoxyphenyl)piperazine], the Ki was found to be 0.58 nM.

With `COc1cc([N+](=O)[O-])ccc1N1CCN(CCN(C(=O)C2CCCCC2)c2ccccc2OC(F)(F)F)CC1` [Example 55, 1-[N-cyclohexylcarbonyl-N-(2-trifluoromethoxyphenyl)-2-aminoethyl]-^4-(2-methoxy-4-nitrophenyl)piperazine], the Ki worked out at 10.8 nM.

`COc1cc(NC(C)=O)ccc1N1CCN(CCN(C(=O)C2CCCCC2)c2ccccc2[N+](=O)[O-])CC1` [Example 70]: the Ki is 28.1 nM.

For the molecule `COc1ccccc1N1CCN(CCN(C(=O)C2CCCCC2)c2ccccc2NS(C)(=O)=O)CC1` [Example 46, 1-[N-cyclohexylcarbonyl-N-(2-methanesulphonylaminophenyl)-2-aminoethyl]-4-(2-methoxyphenyl)piperazine], the Ki amounted to 6.05 nM.

`COc1ccccc1N1CCN(CCN(C(=O)c2cccs2)c2ccccc2[N+](=O)[O-])CC1` [Example 34, 1-[N-(2-nitrophenyl)-N-(2-thiophenecarbonyl)-2-aminoethyl]-4-(2-methoxyphenyl)piperazine]: the inhibitory constant (Ki) is 16.3 nM.

Regarding `COC(=O)c1ccccc1NCCN1CCN(c2ccccc2OC)CC1` [Example 17, 1-[N-(2-methoxycarbonylphenyl)-2-aminoethyl]-4-(2-methoxyphenyl)piperazine], the Ki was 20.2 nM.

Turning to `COc1ccccc1N1CCN(CCN(C(=O)C2CCCCC2)c2ccccc2C(F)(F)F)CC1` [Example 26, 1-[N-(2-trifluoromethylphenyl)-N-cyclohexylcarbonyl-2-aminoethyl]-4-(2-methoxyphenyl)piperazine.], the Ki was 2.69 nM.

Take `COc1ccccc1N1CCN(CCN(C(=O)c2ccoc2)c2ccccc2[N+](=O)[O-])CC1` [Example 32, 1-[N-(2-nitrophenyl)-N-(3-furylcarbonyl)-2-aminoethyl]-4-(2-methoxyphenyl)piperazine]: the Ki was found to be 19.4 nM.

For the molecule `O=C(C1CCCCC1)N(CCN1CCN(Cc2cc(Cl)ccc2Cl)CC1)c1ccccc1[N+](=O)[O-]` [Example 15, 1-[N-(2-nitrophenyl)-N-cyclohexylcarbonyl-2-aminoethyl]-4-(2,5-dichlorobenzyl)piperazine], the Ki worked out at 6.2 nM.

Take `COc1ccccc1N1CCN(CCNc2ccccc2OC(F)(F)F)CC1` [Example 3, 1-[N-(2-trifluoromethoxyphenyl)-2-aminoethyl]-4-(2-methoxyphenyl)piperazine]: the Ki is 10.3 nM.

For the molecule `COc1ccccc1N1CCN(CCN(C(=O)C2CCCCC2)c2ccccc2OC(F)(F)F)CC1` [Example 4, 1-[N-(2-trifluoromethoxyphenyl)-N-cyclohexylcarbonyl-2-aminoethyl]-4-(2-methoxyphenyl)piperazine], the Ki turned out to be 0.64 nM.

Regarding `COc1ccc(Br)c(CN2CCN(CCNc3ccccc3OC(F)(F)F)CC2)c1` [Example 74, 1-[N-(2-trifluoromethoxyphenyl)-2-aminoethyl]-4-(2-bromo-5-methoxybenzyl)piperazine], the Ki was found to be 2.02 nM.

Consider `O=C(c1cnccn1)N(CCN1CCN(c2cccc3[nH]ccc23)CC1)c1ccccc1[N+](=O)[O-]` [Example 53], for which the Ki was determined as 11.7 nM.

In the case of `COc1cc(NC(=O)C(F)(F)F)ccc1N1CCN(CCN(C(=O)C2CCCCC2)c2ccccc2OC(F)(F)F)CC1` [Example 58, 1-[N-cyclohexylcarbonyl-N-(2-trifluoromethoxyphenyl)-2-aminoethyl]-4-(4-trifluoroacetylamino-2-methoxyphenyl)piperazine], the Ki came to 2.44 nM.

Consider `O=[N+]([O-])c1ccccc1NCCN1CCN(Cc2cc(Cl)ccc2Cl)CC1` [Example 14, 1-[N-(2-nitrophenyl)-2-aminoethyl)-4-(2,5-dichlorobenzyl)piperazine], for which the inhibitory constant (Ki) came out at 10.3 nM.

On to `COc1ccccc1N1CCN(CCN(C(=O)c2cnccn2)c2ccccc2[N+](=O)[O-])CC1` [Example 38, 1-[N-(2-nitrophenyl)-N-(2-pyrazinylcarbonyl)-2-aminoethyl]-4-(2-methoxyphenyl)piperazine], for which the Ki is 1.02 nM.

In the case of `COc1cc([N+](=O)[O-])ccc1N1CCN(CCN(C(=O)C2CCCCC2)c2ccccc2OCC(F)(F)F)CC1` [Example 65], the Ki was found to be 18.6 nM.

Take `O=C(C1CCCCC1)N(CCN1CCN(c2cccc3[nH]ccc23)CC1)c1ccccc1I` [Example 76, 1-[N-cyclohexylcarbonyl-N-(2-iodophenyl)-2-aminoethyl]-4-(4-indolyl)piperazine]: the Ki was 0.69 nM.

As for `FC(F)(F)Oc1ccccc1NCCN1CCN(c2ccccc2OC(F)(F)F)CC1` [Example 71, 1-[N-(2-trifluoromethoxyphenyl)-2-aminoethyl]-4-(2-trifluoromethoxyphenyl)piperazine], the Ki stood at 15.5 nM.

With `COc1ccccc1N1CCN(CCN(C(=O)c2cncs2)c2ccccc2[N+](=O)[O-])CC1` [Example 73], the Ki was determined as 21.2 nM.

In the case of `COc1ccccc1N1CCN(CCNc2ccccc2C(F)(F)F)CC1` [Example 22, 1-[N-(2-trifluoromethylphenyl)-2-aminoethyl]-4-(2-methoxyphenyl)piperazine], the Ki was 18.2 nM.

Consider `O=C(C1CCCCC1)N(CCN1CCN(c2cccc3c2ccn3C(=O)C2CCCCC2)CC1)c1ccccc1OC(F)(F)F` [Example 84, 1-[N-cyclohexylcarbonyl-N-(2-trifluoromethoxyphenyl)-2-aminoethyl]-4-(1-cyclohexylcarbonyl-4-indolyl)piperazine], for which the Ki stood at 23.2 nM.

`COc1ccccc1N1CCN(CCN(C(=O)C2CCCCC2)c2ccccc2C(=O)N(C)C)CC1` [Example 21, 1-[N-(2-dimethylaminocarbonylphenyl)-N-cyclohexylcarbonyl-2-aminoethyl]-4-(2-methoxyphenyl)piperazine.]: the Ki was found to be 2.72 nM.

With `COc1ccccc1N1CCN(CCN(C(=O)C2CCCCC2)c2ccccc2C(=O)OCc2ccccc2)CC1` [Example 49, 1-[N-cyclohexylcarbonyl-N-(2-benzyloxycarbonylphenyl)-2-aminoethyl]-4-(2-methoxyphenyl)piperazine], the inhibitory constant (Ki) stood at 0.17 nM.

As to `O=C(C1CCCCC1)N(CCN1CCN(c2ccccc2OC(F)(F)F)CC1)c1ccccc1OC(F)(F)F` [Example 72, 1-[N-cyclohexylcarbonyl-N-(2-trifluoromethoxyphenyl)-2-aminoethyl]-4-(2-trifluoromethoxyphenyl)piperazine], the Ki came to 1.22 nM.

The record behind these values is patent US6399614B1, “1-(N-phenylaminoalkyl)piperazine derivatives substituted at position 2 of the phenyl ring” (Recordati S.A. Chemical and Pharmaceutical Company, priority 1997, dated 2002).
